Assay results: ChEMBL document CHEMBL1155893 (J Med Chem, 2008)

What was measured:
Assay type in all cases: functional, organism-based
Plasmodium falciparum [1] = test: Antimalarial activity against chloroquine,mefloquine-sensitive Plasmodium falciparum D6
Plasmodium falciparum [2] = test: Antimalarial activity against multidrug-resistant Plasmodium falciparum TM91C235
Plasmodium falciparum [3] = test: Antimalarial activity against chloroquine-resistant Plasmodium falciparum W2

Compound	IC50 (Plasmodium falciparum [1]) [nM]	IC90 (Plasmodium falciparum [1]) [nM]	IC50 (Plasmodium falciparum [2]) [nM]	IC90 (Plasmodium falciparum [2]) [nM]	IC50 (Plasmodium falciparum [3]) [nM]	IC90 (Plasmodium falciparum [3]) [nM]
COC(=O)CC[C@@H](C)[C@H]1CC[C@H]2[C@@H]3[C@H](OC(C)=O)C[C@@H]4C[C@@H](NCCNc5ccnc6cc(Cl)ccc56)CC[C@]4(C)[C@H]3C[C@H](OC(C)=O)[C@]12C	6.17	10.4	11	25	3.38	6.74
CC(=O)O[C@@H]1CC[C@@]2(C)[C@@H](C1)C[C@@H](OC(C)=O)[C@@H]1[C@@H]2C[C@H](OC(C)=O)[C@]2(C)[C@@H]([C@H](C)CCC(=O)NCCNc3ccnc4cc(Cl)ccc34)CC[C@@H]12	19	21.1	28.8	34.8	48.9	70.6
Clc1ccc2c(NCCCCCNCC34CC5CC(CC(C5)C3)C4)ccnc2c1	15.2	18.9	75.3	161	131	168
CC(=O)O[C@@H]1CC[C@@]2(C)[C@@H](C1)C[C@@H](OC(C)=O)[C@@H]1[C@@H]2C[C@H](OC(C)=O)[C@]2(C)[C@@H]([C@H](C)CCCNCCNc3ccnc4cc(Cl)ccc34)CC[C@@H]12	16.9	34.2	27.7	77.9	11.4	32.5
COC(=O)CC[C@@H](C)[C@H]1CC[C@H]2[C@@H]3[C@H](OC(C)=O)C[C@@H]4C[C@H](OCCNc5ccnc6cc(Cl)ccc56)CC[C@]4(C)[C@H]3C[C@H](OC(C)=O)[C@]12C	33	99.3	50.5	72.8	111	147
CC(=O)O[C@@H]1CC[C@@]2(C)[C@@H](C1)C[C@@H](OC(C)=O)[C@@H]1[C@@H]2C[C@H](OC(C)=O)[C@]2(C)[C@@H]([C@H](C)CCC(=O)Nc3ccnc4cc(Cl)ccc34)CC[C@@H]12	3020	6920	3510	6060	7190	–
CC(=O)O[C@@H]1CC[C@@]2(C)[C@@H](C1)C[C@@H](OC(C)=O)[C@@H]1[C@@H]2C[C@H](OC(C)=O)[C@]2(C)[C@@H]([C@H](C)CCCNc3ccnc4cc(Cl)ccc34)CC[C@@H]12	15.8	70.5	30.1	68.6	140	1180
Clc1ccc2c(NCCNCC34CC5CC(CC(C5)C3)C4)ccnc2c1	4.26	8.23	8.73	14.9	8.4	15.2
O=C(CC12CC3CC(CC(C3)C1)C2)NCCCNc1ccnc2cc(Cl)ccc12	106	294	201	464	337	853
O=C(CC12CC3CC(CC(C3)C1)C2)NCCCCCNc1ccnc2cc(Cl)ccc12	267	347	602	777	518	660
O=C(NCCCNc1ccnc2cc(Cl)ccc12)C12CC3CC(CC(C3)C1)C2	214	370	525	787	878	1360
O=C(CC12CC3CC(CC(C3)C1)C2)NCCNc1ccnc2cc(Cl)ccc12	78.5	157	238	383	254	397
O=C(NCCCCCNc1ccnc2cc(Cl)ccc12)C12CC3CC(CC(C3)C1)C2	511	632	765	984	884	1410
Clc1ccc2c(NCCNCCC34CC5CC(CC(C5)C3)C4)ccnc2c1	8.59	13.7	17.8	24.4	15.7	31
Clc1ccc2c(NCCCCCNCCC34CC5CC(CC(C5)C3)C4)ccnc2c1	21.9	24.8	67.2	168	160	311
Clc1ccc2c(NCCCN(CCC34CC5CC(CC(C5)C3)C4)CCC34CC5CC(CC(C5)C3)C4)ccnc2c1	52.2	78.3	109	171	83.2	132
COC(=O)CC[C@@H](C)[C@H]1CC[C@H]2[C@@H]3[C@H](OC(C)=O)C[C@@H]4C[C@H](NCCNc5ccnc6cc(Cl)ccc56)CC[C@]4(C)[C@H]3C[C@H](OC(C)=O)[C@]12C	9.47	12.3	12.8	24.4	5.74	11.2
COC(=O)CC[C@@H](C)[C@H]1CC[C@H]2[C@@H]3[C@H](OC(C)=O)C[C@@H]4C[C@H](Nc5ccnc6cc(Cl)ccc56)CC[C@]4(C)[C@H]3C[C@H](OC(C)=O)[C@]12C	10.7	20.7	30.1	68.6	108	563
COC(=O)CC[C@@H](C)[C@H]1CC[C@H]2[C@@H]3[C@H](OC(C)=O)C[C@@H]4C[C@H](OCCNCCNc5ccnc6cc(Cl)ccc56)CC[C@]4(C)[C@H]3C[C@H](OC(C)=O)[C@]12C	14.1	22.8	32.2	76	17.8	24.6
CCCNC(=O)CC[C@@H](C)[C@H]1CC[C@H]2[C@@H]3[C@H](OC(C)=O)C[C@@H]4C[C@H](Nc5ccnc6cc(Cl)ccc56)CC[C@]4(C)[C@H]3C[C@H](OC(C)=O)[C@]12C	68.2	98.2	99.5	367	209	1850
Clc1ccc2c(NCCCNCC34CC5CC(CC(C5)C3)C4)ccnc2c1	3.83	6.41	7.39	20.2	12.1	20.1
O=C(NCCNc1ccnc2cc(Cl)ccc12)C12CC3CC(CC(C3)C1)C2	202	465	439	685	485	724
Clc1ccc2c(NCCCNCCC34CC5CC(CC(C5)C3)C4)ccnc2c1	11.4	23.3	42.1	171	33.7	56.1
Clc1ccc2c(NCCN(CCC34CC5CC(CC(C5)C3)C4)CCC34CC5CC(CC(C5)C3)C4)ccnc2c1	51.9	70	101	225	78.2	113
C[C@@H]1CC[C@H]2[C@@H](C)C(=O)O[C@@H]3O[C@@]4(C)CC[C@@H]1[C@]32OO4 [ARTEMISININ]	9	12.8	13	17.4	6.7	11.5
CCN(CC)CCCC(C)Nc1ccnc2cc(Cl)ccc12 (stereo not given) [CHLOROQUINE]	–	16.4	–	–	–	530
O[C@@H](c1cc(C(F)(F)F)nc2c(C(F)(F)F)cccc12)[C@H]1CCCCN1 [MEFLOQUINE]	11.2	28.1	–	106	–	14.7
